Reference: PMC11314561, “Design and Synthesis of Novel Aminoindazole-pyrrolo[2,3-b]pyridine Inhibitors of IKKα That Selectively Perturb Cellular Non-Canonical NF-κB Signalling” (Molecules, 2024)

Key:
Experiment in all cases: kinase panel
Format in all cases: biochemical
ZIPK(h) = ZIPK(h) (Homo sapiens, UniProt O43293)
Description: (§1) We profiled three compounds from the series across the kinome (Table S1).
(§2) Ta b l e S1. The % inhibition of compounds 4, 5r [SU1261], and 6g [SU1349] against a
(§3) panel of kinase enzymes. We proϐiled three compounds from the series across 231
(§4) kinases. For SU1349, given its structural similarity with SU1261, we selected 98 from the
(§5) Tested kinase % inhibiƟon

Syk(h) = Syk(h) (Homo sapiens, UniProt P43405)
Description: as §1, §2, §3, §4, §5

CDK6/cyclinD3(h) = CDK6/cyclinD3(h) (Homo sapiens, UniProt Q00534)
CDK6/cyclinD3(h), sequence (Q00534 whole entry): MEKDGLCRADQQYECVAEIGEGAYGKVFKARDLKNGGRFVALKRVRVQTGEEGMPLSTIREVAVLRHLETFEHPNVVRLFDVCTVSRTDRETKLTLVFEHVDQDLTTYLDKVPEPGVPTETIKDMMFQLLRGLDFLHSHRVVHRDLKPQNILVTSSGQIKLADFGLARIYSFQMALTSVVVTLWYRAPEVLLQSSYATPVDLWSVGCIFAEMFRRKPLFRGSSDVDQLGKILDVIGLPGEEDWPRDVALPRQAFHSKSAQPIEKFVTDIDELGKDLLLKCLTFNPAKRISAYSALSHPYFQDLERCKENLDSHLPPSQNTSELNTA
CDK6/cyclinD3(h), sequence (P30281 whole entry partner): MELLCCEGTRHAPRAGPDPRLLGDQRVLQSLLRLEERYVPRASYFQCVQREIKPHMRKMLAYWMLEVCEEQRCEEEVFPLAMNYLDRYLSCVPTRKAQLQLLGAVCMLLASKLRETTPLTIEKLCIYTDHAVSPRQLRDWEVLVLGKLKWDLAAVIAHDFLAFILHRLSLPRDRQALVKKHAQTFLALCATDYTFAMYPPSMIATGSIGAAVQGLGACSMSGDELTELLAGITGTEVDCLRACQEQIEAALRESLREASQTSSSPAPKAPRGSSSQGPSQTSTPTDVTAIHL
Description: as §1, §2, §3, §4, §5

Mer(h) = biological target: T1, Mer(h) (Homo sapiens, UniProt Q12866)
T1 sequence (Q12866 21-999): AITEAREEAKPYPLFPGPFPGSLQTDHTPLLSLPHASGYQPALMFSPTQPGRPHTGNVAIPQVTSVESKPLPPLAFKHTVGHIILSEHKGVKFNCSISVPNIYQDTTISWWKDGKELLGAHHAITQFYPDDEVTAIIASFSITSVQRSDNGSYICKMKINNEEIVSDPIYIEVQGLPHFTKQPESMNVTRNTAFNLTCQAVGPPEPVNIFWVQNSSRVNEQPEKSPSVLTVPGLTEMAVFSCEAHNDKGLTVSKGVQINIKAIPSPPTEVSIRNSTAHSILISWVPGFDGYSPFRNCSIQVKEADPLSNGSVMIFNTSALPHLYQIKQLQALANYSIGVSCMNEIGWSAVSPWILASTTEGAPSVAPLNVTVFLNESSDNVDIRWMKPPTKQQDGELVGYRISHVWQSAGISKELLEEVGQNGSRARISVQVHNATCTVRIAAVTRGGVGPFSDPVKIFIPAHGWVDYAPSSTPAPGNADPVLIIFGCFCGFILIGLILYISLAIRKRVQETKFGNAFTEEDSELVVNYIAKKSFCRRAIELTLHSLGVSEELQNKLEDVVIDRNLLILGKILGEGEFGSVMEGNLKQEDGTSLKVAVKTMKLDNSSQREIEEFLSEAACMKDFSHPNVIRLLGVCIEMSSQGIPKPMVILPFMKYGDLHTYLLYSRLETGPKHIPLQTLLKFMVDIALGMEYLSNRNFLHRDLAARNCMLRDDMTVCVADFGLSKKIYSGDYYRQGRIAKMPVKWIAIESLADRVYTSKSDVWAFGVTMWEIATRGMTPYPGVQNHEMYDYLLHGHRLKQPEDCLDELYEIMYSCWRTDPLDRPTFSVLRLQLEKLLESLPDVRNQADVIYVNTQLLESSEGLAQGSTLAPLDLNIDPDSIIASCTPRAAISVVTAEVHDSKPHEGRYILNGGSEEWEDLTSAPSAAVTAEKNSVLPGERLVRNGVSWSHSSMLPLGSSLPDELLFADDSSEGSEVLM
Description: as §1, §2, §3, §4, §5

MARK1(h) = MARK1(h) (Homo sapiens, UniProt Q9P0L2)
Description: as §1, §2, §3, §4, §5

TrkA(h) = TrkA(h) (Homo sapiens, UniProt P04629)
TrkA(h), sequence (P04629 33-796): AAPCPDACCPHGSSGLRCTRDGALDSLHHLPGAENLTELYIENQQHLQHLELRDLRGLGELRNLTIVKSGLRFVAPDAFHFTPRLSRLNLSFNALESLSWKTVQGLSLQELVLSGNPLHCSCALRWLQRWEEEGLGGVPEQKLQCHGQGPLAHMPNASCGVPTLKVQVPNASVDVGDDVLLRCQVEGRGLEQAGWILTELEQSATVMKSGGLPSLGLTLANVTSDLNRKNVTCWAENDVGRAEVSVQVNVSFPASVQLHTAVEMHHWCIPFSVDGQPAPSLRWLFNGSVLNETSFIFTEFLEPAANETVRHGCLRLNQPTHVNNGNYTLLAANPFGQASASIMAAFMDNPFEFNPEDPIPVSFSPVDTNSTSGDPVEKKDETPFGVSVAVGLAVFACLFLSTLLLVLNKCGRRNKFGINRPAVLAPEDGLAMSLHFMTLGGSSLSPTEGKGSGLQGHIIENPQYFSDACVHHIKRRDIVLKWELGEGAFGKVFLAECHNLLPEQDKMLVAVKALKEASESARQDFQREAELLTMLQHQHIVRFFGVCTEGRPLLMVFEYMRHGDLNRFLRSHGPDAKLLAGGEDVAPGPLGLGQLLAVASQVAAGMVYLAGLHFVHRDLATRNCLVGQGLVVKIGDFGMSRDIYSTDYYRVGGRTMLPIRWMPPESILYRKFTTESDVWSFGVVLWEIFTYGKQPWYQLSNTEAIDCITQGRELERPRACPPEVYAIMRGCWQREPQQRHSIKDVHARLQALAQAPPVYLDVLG
Description: as §1, §2, §3, §4, §5

DAPK1(h) = DAPK1(h) (Homo sapiens, UniProt P53355)
DAPK1(h), sequence (P53355 whole entry): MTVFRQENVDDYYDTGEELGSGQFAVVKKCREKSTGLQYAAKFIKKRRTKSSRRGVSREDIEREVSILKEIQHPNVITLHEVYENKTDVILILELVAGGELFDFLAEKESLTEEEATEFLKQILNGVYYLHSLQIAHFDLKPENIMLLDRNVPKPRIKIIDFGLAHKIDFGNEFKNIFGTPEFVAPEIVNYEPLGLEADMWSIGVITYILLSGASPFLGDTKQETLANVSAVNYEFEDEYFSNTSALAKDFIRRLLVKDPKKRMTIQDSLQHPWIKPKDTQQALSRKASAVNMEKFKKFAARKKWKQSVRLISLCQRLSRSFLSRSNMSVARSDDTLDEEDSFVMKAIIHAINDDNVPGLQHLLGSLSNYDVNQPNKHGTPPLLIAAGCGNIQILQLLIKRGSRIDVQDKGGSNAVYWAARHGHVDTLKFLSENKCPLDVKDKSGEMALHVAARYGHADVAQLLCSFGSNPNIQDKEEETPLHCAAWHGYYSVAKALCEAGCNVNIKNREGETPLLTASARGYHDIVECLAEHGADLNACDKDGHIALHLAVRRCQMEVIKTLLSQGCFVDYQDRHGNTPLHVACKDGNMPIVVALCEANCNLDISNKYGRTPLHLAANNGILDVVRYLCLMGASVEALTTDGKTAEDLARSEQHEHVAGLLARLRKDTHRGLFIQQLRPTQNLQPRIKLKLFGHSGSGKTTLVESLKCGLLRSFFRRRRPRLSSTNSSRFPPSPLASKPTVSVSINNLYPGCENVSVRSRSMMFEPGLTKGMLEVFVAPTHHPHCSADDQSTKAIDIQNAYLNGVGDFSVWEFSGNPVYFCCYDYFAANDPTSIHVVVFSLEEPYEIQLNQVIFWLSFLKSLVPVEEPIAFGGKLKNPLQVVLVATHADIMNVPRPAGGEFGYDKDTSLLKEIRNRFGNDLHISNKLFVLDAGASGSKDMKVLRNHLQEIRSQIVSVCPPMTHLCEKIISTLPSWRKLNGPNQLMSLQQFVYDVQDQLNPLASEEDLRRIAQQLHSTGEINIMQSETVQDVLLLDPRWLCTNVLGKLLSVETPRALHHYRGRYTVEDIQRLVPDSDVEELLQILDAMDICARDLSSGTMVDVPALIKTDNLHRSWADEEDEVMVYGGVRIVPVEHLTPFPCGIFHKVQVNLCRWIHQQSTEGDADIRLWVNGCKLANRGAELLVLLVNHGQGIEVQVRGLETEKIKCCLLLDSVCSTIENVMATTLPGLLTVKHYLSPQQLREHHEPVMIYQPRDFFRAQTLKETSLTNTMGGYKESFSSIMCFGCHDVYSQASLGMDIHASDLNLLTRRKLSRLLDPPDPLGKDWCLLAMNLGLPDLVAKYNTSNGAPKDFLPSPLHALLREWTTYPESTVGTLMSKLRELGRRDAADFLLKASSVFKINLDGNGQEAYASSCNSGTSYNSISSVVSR
Description: as §1, §2, §3, §4, §5

cSRC(h) = cSRC(h) (Homo sapiens, UniProt P12931)
cSRC(h), sequence (P12931 whole entry): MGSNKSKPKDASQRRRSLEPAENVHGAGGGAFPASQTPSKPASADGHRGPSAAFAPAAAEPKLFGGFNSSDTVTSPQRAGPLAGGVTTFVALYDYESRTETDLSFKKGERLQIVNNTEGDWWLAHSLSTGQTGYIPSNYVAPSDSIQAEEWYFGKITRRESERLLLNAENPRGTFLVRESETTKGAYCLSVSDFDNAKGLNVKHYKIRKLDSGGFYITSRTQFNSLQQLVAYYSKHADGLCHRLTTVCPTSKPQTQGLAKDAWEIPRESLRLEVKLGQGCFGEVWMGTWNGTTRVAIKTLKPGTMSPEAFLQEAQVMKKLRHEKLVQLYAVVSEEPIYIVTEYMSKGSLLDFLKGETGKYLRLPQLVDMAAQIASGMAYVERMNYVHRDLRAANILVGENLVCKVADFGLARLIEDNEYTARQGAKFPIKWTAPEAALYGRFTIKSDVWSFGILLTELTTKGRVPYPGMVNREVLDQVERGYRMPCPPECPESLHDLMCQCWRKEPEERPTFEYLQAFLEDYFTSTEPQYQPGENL
Description: as §1, §2, §3, §4, §5

PDGFRβ(h) = PDGFRβ(h) (Homo sapiens, UniProt P09619)
PDGFRβ(h), sequence (P09619 33-1106): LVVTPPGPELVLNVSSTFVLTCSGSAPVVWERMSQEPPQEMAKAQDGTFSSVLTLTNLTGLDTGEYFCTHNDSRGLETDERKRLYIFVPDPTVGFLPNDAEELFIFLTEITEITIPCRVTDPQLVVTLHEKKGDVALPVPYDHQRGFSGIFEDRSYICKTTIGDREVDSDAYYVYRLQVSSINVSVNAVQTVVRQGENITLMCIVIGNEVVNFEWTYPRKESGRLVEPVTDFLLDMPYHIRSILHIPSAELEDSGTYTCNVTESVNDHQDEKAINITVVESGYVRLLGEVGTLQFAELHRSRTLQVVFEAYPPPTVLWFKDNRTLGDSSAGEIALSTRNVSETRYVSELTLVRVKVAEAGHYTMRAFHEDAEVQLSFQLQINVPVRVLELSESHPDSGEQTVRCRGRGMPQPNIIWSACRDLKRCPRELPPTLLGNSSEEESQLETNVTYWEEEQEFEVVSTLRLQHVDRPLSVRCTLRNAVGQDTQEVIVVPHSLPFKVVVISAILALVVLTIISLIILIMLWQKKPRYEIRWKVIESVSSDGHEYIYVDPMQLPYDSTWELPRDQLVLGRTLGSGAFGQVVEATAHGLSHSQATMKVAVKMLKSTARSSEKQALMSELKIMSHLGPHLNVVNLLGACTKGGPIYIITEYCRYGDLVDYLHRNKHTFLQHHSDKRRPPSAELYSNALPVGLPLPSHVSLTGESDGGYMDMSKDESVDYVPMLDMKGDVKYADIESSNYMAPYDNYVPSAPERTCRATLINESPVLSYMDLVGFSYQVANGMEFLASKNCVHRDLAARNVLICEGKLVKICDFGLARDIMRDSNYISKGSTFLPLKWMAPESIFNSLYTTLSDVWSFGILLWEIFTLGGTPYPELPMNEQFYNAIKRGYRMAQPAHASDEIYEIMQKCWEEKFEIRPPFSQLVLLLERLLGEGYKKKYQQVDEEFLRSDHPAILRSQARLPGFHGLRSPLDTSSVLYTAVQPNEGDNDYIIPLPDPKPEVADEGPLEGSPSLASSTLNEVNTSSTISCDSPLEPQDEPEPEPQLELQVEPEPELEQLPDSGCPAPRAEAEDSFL
Description: as §1, §2, §3, §4, §5

PKD2(h) = biological target: T2, PKD2(h) (Homo sapiens, UniProt Q9BZL6)
T2 sequence (Q9BZL6 1-878): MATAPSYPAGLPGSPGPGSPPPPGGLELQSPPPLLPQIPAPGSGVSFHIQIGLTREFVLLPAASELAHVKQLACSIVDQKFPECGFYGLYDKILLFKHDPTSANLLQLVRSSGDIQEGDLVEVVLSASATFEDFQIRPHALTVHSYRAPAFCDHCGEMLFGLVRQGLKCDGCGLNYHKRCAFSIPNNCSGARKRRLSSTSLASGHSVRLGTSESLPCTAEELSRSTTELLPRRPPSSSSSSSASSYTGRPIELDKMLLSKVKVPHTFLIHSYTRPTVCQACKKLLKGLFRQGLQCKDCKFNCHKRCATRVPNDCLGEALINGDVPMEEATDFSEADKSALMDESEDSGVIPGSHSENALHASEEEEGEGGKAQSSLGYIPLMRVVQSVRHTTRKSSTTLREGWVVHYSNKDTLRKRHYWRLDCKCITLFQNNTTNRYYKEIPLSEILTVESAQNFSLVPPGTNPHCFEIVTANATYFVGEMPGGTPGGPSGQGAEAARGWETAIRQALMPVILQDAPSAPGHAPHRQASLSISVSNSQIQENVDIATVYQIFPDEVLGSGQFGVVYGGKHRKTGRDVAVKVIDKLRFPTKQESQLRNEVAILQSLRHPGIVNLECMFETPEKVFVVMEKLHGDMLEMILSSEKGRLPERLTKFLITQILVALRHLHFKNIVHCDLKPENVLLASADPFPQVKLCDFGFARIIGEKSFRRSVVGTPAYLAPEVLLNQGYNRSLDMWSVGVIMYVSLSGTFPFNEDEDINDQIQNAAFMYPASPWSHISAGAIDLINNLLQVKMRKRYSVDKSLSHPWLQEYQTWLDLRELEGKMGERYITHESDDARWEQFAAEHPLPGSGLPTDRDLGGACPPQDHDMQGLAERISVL
Description: as §1, §2, §3, §4, §5

Aurora-A(h) = biological target: T3, Aurora-A(h) (Homo sapiens, UniProt O14965)
T3 sequence (O14965 1-403): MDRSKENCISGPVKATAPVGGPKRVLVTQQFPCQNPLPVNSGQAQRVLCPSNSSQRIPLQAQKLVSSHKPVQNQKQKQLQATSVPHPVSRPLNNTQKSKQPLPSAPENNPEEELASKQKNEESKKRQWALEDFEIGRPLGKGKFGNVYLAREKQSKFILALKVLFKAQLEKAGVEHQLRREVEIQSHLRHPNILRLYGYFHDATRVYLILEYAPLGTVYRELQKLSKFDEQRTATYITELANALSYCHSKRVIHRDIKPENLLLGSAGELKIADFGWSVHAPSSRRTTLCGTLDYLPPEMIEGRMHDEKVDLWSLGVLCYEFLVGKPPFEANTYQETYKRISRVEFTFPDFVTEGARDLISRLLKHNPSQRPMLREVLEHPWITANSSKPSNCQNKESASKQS
Description: as §1, §2, §3, §4, §5

ZIPK(h), sequence (O43293 whole entry): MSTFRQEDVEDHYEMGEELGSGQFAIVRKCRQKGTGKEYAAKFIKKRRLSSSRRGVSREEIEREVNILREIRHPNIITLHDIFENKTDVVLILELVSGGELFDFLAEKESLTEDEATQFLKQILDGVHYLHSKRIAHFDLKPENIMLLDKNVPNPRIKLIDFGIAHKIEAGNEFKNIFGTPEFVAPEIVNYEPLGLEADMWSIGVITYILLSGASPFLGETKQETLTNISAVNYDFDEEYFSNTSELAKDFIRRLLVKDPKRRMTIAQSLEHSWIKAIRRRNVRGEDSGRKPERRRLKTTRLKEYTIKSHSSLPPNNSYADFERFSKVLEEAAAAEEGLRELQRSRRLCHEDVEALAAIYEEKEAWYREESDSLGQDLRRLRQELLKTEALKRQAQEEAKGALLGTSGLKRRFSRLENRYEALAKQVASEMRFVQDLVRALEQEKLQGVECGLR

inhibition at 1 µM (ZIPK(h)) [%]	inhibition at 1 µM (Syk(h)) [%]	inhibition at 1 µM (CDK6/cyclinD3(h)) [%]	inhibition at 1 µM (Mer(h)) [%]	inhibition at 1 µM (MARK1(h)) [%]	inhibition at 1 µM (TrkA(h)) [%]	inhibition at 1 µM (DAPK1(h)) [%]	inhibition at 1 µM (cSRC(h)) [%]	inhibition at 1 µM (PDGFRβ(h)) [%]	inhibition at 1 µM (PKD2(h)) [%]	inhibition at 1 µM (Aurora-A(h)) [%]	Compound
1	25	-13	12	17	-11	4	-28	-14	-5	36	Nc1n[nH]c2ccc(-c3ccnc4[nH]c(-c5ccnc(OCc6ccccc6)c5)cc34)cc12 [Compound 6g [SU1349]]
-7	77	82	88	84	71	-1	42	14	8	88	Nc1n[nH]c2ccc(-c3ccnc4[nH]c(-c5ccccc5)cc34)cc12 [Compound 4]
0	32	17	27	28	29	-15	26	1	-1	52	Nc1n[nH]c2ccc(-c3ccnc4[nH]c(-c5cccc(OCc6ccccc6)c5)cc34)cc12 [Compound 5r [SU1261]]
